The target in one assay is T1, JNK1 (Homo sapiens, UniProt P45983).
T1 construct: gene MAPK8; C-terminal truncated form of human JNK1α1 (residues 1–364), C-terminal 6His tag
Briefly: tryptophan fluorescence quenching titration with purified protein. In kind it is binding.

Assay [1] addresses T2, P. acnes β-ketoacyl acyl carrier protein (ACP) synthase III (KAS III) (Cutibacterium acnes, UniProt P0DW99).
T2 construct: gene fabH; wild-type P. acnes KAS III
T2 sequence (P0DW99 1-332): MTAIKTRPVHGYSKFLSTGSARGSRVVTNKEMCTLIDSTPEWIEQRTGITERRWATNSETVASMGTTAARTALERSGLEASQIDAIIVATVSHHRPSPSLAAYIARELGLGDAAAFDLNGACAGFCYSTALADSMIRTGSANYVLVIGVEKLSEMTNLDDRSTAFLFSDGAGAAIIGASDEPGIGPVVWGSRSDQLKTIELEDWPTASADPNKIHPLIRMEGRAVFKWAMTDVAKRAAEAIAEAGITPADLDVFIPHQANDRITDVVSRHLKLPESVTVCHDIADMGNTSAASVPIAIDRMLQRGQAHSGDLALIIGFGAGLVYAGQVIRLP
In kind it is biochemical.

For orientation: Kd means the concentration at which binding is half-saturated. Higher therefore signals a looser complex.

Each structure is given as a SMILES string.

T1 sequence (P45983 1-364): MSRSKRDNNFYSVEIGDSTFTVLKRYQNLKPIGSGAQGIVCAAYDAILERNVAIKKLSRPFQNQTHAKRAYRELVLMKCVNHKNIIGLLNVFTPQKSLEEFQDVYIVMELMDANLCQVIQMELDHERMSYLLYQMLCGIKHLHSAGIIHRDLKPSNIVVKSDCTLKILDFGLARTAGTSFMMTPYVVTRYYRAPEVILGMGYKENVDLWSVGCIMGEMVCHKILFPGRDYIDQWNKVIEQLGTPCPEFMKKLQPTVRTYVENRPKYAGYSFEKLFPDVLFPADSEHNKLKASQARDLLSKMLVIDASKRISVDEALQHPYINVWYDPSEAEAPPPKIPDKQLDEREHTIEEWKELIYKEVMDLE

`O=C(CCc1ccc(O)cc1)c1c(O)cc(O)cc1O` [Phloretin, 3-(4-hydroxyphenyl)-1-(2,4,6-trihydroxyphenyl)-1-propanone] gave a Kd on JNK1 of 11.8 µM. The “% reduction of product” value in assay [1] was > 66 % reduction of product.

The record behind these values is article PMC6479541, “Target Proteins of Phloretin for Its Anti-Inflammatory and Antibacterial Activities Against Propionibacterium acnes-Induced Skin Infection” (Molecules, 2019).
